In patent US20090188497A1, “MEDICAL PRODUCT CONTAINING TIOTROPIUM” (Boehringer Ingelheim International GmbH, priority 2003, published 2009):

Experiment: In-use stability test of FPD, capsules in opened blister at 40° C. and 75% Rh (tests S3-S5)
Format: physicochemical
Details: conclusion of the tests on SPIRIVA
Description: SPIRIVA® powder formulation in bulk and SPIRIVA® capsules from our local pharmacy were introduced to the laboratory together with the […]®. The laboratory was set up to perform in-vitro tests according to European Pharmacopoeia (EP) and US Pharmacopoeia (USP) using two Andersen cascade impactors. All analytical work where then performed according to standardized methods for Physical Tests and Determinations for Aerosols, metered-dose inhalers and dry powder inhalers described in pharmacopoeias (e.g. USP 2002<601>) using a state of the art High Performance Liquid Chromatograph (HPLC) system.
(§1) From the blister holding 5 capsules one capsule was withdrawn and the remaining 4 capsules were put 4 days into 40° C. and 75% Rh. The blister containing the 4 capsules was then put in an exicator for 2 h before tests were performed. The test was performed with 4 kPa pressure drop over the […]® at room temperature and laboratory ambient conditions.
as §1, with “put 13” for “put 4”, “conditions. […]” for “conditions.”

C[N+]1(C)[C@@H]2C[C@@H](OC(=O)C(O)(c3cccs3)c3cccs3)C[C@H]1[C@@H]1O[C@@H]12 [tiotropium]
sensitivity to moisture: extremely sensitive to moisture
